US20140328861A1, “Combination of CRTH2 Antagonist and a Proton Pump Inhibitor for the Treatment of Eosinophilic Esophagitis” (Atopix Therapeutics Limited, priority 2011, published 2014)

Test system: patients with active eosinophilic esophagitis (esophageal eosinophil load)
Assay: 8 week randomized, double-blind, placebo-controlled study in patients with active eosinophilic esophagitis
Assay type: in vivo, human
Experimental: The study was a randomized, double-blind, placebo-controlled, single-center study of (5-fluoro-2-methyl-3-quinolin-2-ylmethyl-indo-1-yl)-acetic acid (OC000459) for 8 weeks in patients with active (≧20 eos/hpf and symptoms), corticosteroid-dependent, and/or -resistant eosinophilic esophagitis (EoE). The study compared patients taking 100 mg of OC000459 twice daily with patients taking a placebo twice daily. The study consisted of 26 patients with 14 patients taking OC000459 and 12 patients taking the placebo. Pre- and post-treatment disease-activity was assessed clinically, endoscopically, histologically, and via biomarkers. The primary endpoint was the reduction of the esophageal eosinophil load.
5. Free of all medications for EoE (including topical steroids) for at least 2 weeks prior to baseline and free of systemic steroids for at least 90 days before screening. A proton-pump inhibitor is allowed if required for treatment of secondary acid reflux.
After an 8-week treatment of active EoE with OC000459, the total mean eosinophil number decreased from 114.7 to 74.2 eos/hpf, whereas under placebo, no reduction was observed (from 102.8 to 99.4 eos/hpf).
A possible explanation for this is that acid reflux may be responsible for the eosinophilic inflammation in the distal esophagus which is consistent with reports that eosinophilia is reduced by PPIs in some patients with EoE (Molina-Infante et al., 2011). […] It is therefore proposed that the combination of CRTH2 antagonists with PPIs will be effective in the treatment of EoE by blocking both the allergic and acid reflux pathways. Three patients were treated with both OC000459 and esomeprazole, either 20 mg or 40 mg once a day.

Cc1c(Cc2ccc3ccccc3n2)c2cc(F)ccc2n1CC(=O)O [OC000459, (5-fluoro-2-methyl-3-quinolin-2-ylmethyl-indo-1-yl)-acetic acid]
effect on eosinophil load, proximal versus distal esophagus (8 weeks, 100 mg twice daily, compared to placebo (FIG. 1)): more pronounced in the proximal upper esophagus than in the distal esophagus | eosinophilic load in the distal esophagus (patients with EoE, 8 weeks): not | eosinophilic load in the proximal esophagus (patients with EoE, 8 weeks): reduces eosinophilic load | total mean eosinophil number, after 8-week treatment (patients with active EoE, 100 mg twice daily, 8 weeks): 74.2 eos/hpf | total mean eosinophil number, before treatment (patients with active EoE, baseline, 100 mg twice daily group): 114.7 eos/hpf
